Values after ≈ are worked out from the molar mass of the structure shown. Where two headings read alike, the source gives them in different places.
Legend:
E. faecalis CICC 21605 = assay: microbe, parasite or virus in culture; type: cell-based, Enterococcus faecalis
Protocol: (§1) An array of indicator strains (S. aureus ATCC 6538, E. faecalis CICC 21605, E. faecium CICC 10004 and L. monocytogenes ATCC 19115) were used to determine the MIC of flexusin A by the methods, as reported. […] The purified powder of flexusin A was reconstituted at 256 μg/mL to serve as the stock solution. It was then used for the antibacterial activity assay over a range of 256, 128, 64, 32, 16, 8, 4, 2, 1, 0.5, 0.25, and 0.125 μg/mL. The protein concentration of the flexusin A stock solution was determined by the BCA method (BCA Protein Assay Kit, Sangon Biotech)”. Water was used as a negative control, whereas ampicillin (Solarbio, Beijing, China) was used as positive control. All assays were performed in triplicate. MIC was defined as the lowest concentration of flexusin A that inhibited indicator growth, as no visible microbial growth was observed.

S. aureus ATCC 6538 = assay: microbe, parasite or virus in culture; type: cell-based, Staphylococcus aureus
Protocol: as §1

[1] = test system: L. monocytogenes ATCC 19115; assay: microbe, parasite or virus in culture; type: cell-based, Listeria monocytogenes
Protocol: as §1

E. faecium CICC 10004 = assay: MIC by broth microdilution; type: cell-based; conditions: Enterococcus faecium, CICC10004, 96-well, approximately 1 × 10^6 CFU/mL, 37 °C, 24 h, no visible growth, triplicate
Protocol: as §1

chymotrypsin = chymotrypsin (Bos taurus, UniProt P00766); conditions: chymotrypsin 1 mg/mL, 25 mM phosphate buffer pH 7.0, 37 °C for 4 h; residual antimicrobial activity, spot-on-lawn bioassay
Protocol: (§2) The HPLC purified bacteriocin samples were made readily soluble in neutral water, and the stock solution was then tested for sensitivity to heat, pH changes, and degradative enzymes. The qualitative spot-on-lawn bioassay was used to monitor changes in antimicrobial potency after treatments mentioned. For thermal stability testing, aliquots of the HPLC-purified peptide samples were exposed to 30 °C, 40 °C, 50 °C, 60 °C, 70 °C, 80 °C, 90 °C, and 100 °C for 30 min, respectively. For the pH stability test, aliquots of the stock solutions were adjusted to pH 2.0, 3.0, 4.0, 5.0, 6.0, 7.0, 8.0, and 9.0, followed by incubation at 25 °C for 2 h.
(§3) Sensitivity to various degradative enzymes was determined using trypsin, papain, pepsin, chymotrypsin, and protease K at a final concentration of 1 mg/mL, respectively. All enzymes were purchased from Sigma, and their solutions were prepared in 25 mM phosphate buffer, pH 7.0 (pepsin, pH = 2.0). Solutions of the antimicrobial peptide were prepared in the same sterile buffer. After mixing the enzymatic reaction solutions were incubated at 37 °C for 4 h before residual antimicrobial activity measurement.

trypsin = trypsin 1 mg/mL, 25 mM phosphate buffer pH 7.0, 37 °C for 4 h; residual antimicrobial activity, spot-on-lawn bioassay
Protocol: as §2, §3

protease K = protease K (Parengyodontium album, UniProt P06873); conditions: protease K 1 mg/mL, 25 mM phosphate buffer pH 7.0, 37 °C for 4 h; residual antimicrobial activity, spot-on-lawn bioassay
Chain of protease K (P06873 106-384): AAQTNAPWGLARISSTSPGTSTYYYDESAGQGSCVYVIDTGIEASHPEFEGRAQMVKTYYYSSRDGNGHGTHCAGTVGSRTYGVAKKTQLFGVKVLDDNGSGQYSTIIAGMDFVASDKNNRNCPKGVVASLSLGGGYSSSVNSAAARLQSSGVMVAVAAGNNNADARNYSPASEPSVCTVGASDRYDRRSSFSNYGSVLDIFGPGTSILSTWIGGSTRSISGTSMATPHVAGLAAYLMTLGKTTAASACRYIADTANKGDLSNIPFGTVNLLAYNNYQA
Protocol: as §2, §3

pepsin = pepsin (Sus scrofa, UniProt P00791); conditions: pepsin 1 mg/mL, 25 mM phosphate buffer pH 2.0, 37 °C for 4 h; residual antimicrobial activity, spot-on-lawn bioassay
Chain of pepsin (P00791 60-385): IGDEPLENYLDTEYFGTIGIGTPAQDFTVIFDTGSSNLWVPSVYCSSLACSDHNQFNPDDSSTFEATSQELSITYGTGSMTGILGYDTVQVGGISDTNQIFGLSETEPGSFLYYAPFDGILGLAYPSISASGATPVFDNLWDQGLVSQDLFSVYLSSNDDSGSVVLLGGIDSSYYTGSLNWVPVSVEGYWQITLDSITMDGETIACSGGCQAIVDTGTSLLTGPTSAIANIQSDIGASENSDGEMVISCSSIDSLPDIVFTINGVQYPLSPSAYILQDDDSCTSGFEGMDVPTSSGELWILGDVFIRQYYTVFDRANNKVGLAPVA
Protocol: as §2, §3

[2] = pH range from 2.0 to 10.0 (method: pH 2.0-9.0), 25 °C for 2 h; read-out qualitative spot-on-lawn bioassay
[3] = treated for 30 min from 20 to 100 °C (method: 30-100 °C); read-out qualitative spot-on-lawn bioassay
[4] = HPLC purified sample, neutral water; qualitative
Protocol: as §2

Molecule | MIC (E. faecalis CICC 21605; Enterococcus faecalis, CICC21605, E. faecalis CICC 21605, broth microdilution, 96-well, approximately 1 × 10^6 CFU/mL, 37 °C, 24 h, no visible growth, triplicate, read-out: MIC) [µg/mL] | MIC (S. aureus ATCC 6538; Staphylococcus aureus, ATCC6538, S. aureus ATCC 6538, broth microdilution, 96-well, approximately 1 × 10^6 CFU/mL, 37 °C, 24 h, no visible growth, triplicate, read-out: MIC) [µg/mL] | MIC ([1]; Listeria monocytogenes, ATCC19115, L. monocytogenes ATCC 19115, broth microdilution, 96-well, approximately 1 × 10^6 CFU/mL, 37 °C, 24 h, no visible growth, triplicate, read-out: MIC) [µg/mL] | MIC (E. faecium CICC 10004) [µg/mL] | MIC (E. faecalis CICC 21605; CICC 21605, 24 h) [µg/mL] | MIC (S. aureus ATCC 6538; ATCC 6538, 24 h) [µg/mL] | MIC ([1]; ATCC 19115, 24 h) [µg/mL] | Resistance to chymotrypsin (remaining activity) (chymotrypsin) | Resistance to trypsin (remaining activity) (trypsin) | Resistance to protease K (remaining activity) (protease K) | Resistance to pepsin (remaining activity) (pepsin) | pH stability (remaining activity) [2] | Thermal stability (remaining activity) [3] | Solubility in water [4]
CC1(C)S[C@@H]2[C@H](NC(=O)[C@H](N)c3ccccc3)C(=O)N2[C@H]1C(=O)O [Amp, ampicillin, reference compound] | > 51.2 | 0.4 (≈ 1.14 µM) | 0.0625 (≈ 0.179 µM) | 1.6 (≈ 4.58 µM) | – | – | – | – | – | – | – | – | – | –
cyclo(AGALGISEYWANVIVTAIEAGSTVLALISMFASFGLTSALILTAKSLLKKGAKKTAVAYI) [flexusin A] | – | – | – | – | 16 | 1 | 2 | sensitive | tolerant | sensitive | tolerant | stable | decent thermal stability | water soluble
